# Values of other authors as cited in patent US12004545B2, “Infant nutrition delivering metabolic benefits” (SOCIÉTÉ DES PRODUITS NESTLÉ S.A., priority 2016, dated 2024).
# Settings: value used in the GL calculation
row,SMILES,GI of ingredient (available CHO)
1,OC[C@H]1O[C@@H](O[C@H]2[C@H](O)[C@@H](O)C(O)O[C@@H]2CO)[C@H](O)[C@@H](O)[C@H]1O (some centres unmarked) [lactose],46
2,OC[C@H]1O[C@@](CO)(O[C@H]2O[C@H](CO)[C@@H](O)[C@H](O)[C@H]2O)[C@@H](O)[C@@H]1O [sucrose],68
